The values below come from publication PMC6017830, “Furan- and Thiophene-2-Carbonyl Amino Acid Derivatives Activate Hypoxia-Inducible Factor via Inhibition of Factor Inhibiting Hypoxia-Inducible Factor-1” (Molecules : A Journal of Synthetic Chemistry and Natural …, 2018).

Test [1] deals with HIF-HRE transcriptional activity in SKN:HRE-MLuc cells (reflects FIH-1 inhibition). In words: HIF activity under hypoxia, HRE-MLuc luciferase reporter assay. It is filed as cell-based, human. The conditions noted are these: for activation at 100 µM / minimal effective concentration: Homo sapiens; for activation at 100 µM: read-out: 100 μM Activity (RLU intensity at 100 μM stimulation compared with the positive control DMOG); for minimal effective concentration: doses 100, 25, 6.3, 1.6 μM, DMOG 100 μM as positive control, read-out: 25% Activity (lower dose limit showing 25% of the RLU intensity of the positive control DMOG). How it is done: To evaluate HIF transactivation following FIH-1 inhibition […], we employed a luciferase reporter assay system in the human neuroblastoma cell line SK-N-BE(2)c. […] Hereafter these HRE reporter cells were designated SKN:HRE-MLuc cells.
SKN:HRE-MLuc (4 × 10^4) were incubated for 24 h on a 96 well culture plate. The medium was replaced with complete media and the test compounds (100, 25, 6.3 and 1.6 μM). DMSO (0.1%) was used as a vehicle control, DMOG (100 μM) and FG4592 (100 μM) were used as a PHDs or FIH-1 inhibitor. The cells were incubated for 24 h under a humidified atmosphere of 5% CO2 and 3% O2 at 37 °C. After incubation, the MLuc activity in culture media was measured with luciferase substrate (Takara, Shiga, Japan) by LB960 luminometer (Berthold, Wildbad, Germany). The HIF activity was calculated as the MLuc intensity, based on the vehicle and positive controls. The lower limit dose out of 100 μM, 25 μM, 6.3 μM, 1.6 μM was listed in Table 1 and Table 2, where 25% RLU intensity was measured using DMOG as a positive control.
In general terms: A reporter such as luciferase makes a cellular process visible.

Test [2] concerns SKN:HRE-MLuc cells. In words: MTS assay (cellular toxicity). The following applies: MTS assay. Format: cell-based, human. The source says:
Next, we evaluated the activation of HIF by furan- and thiophene-2-carbonyl amino acid derivatives using the evaluation methods described above. Simultaneously, we investigated cellular toxicity for those derivatives with a 3-(4,5-dimethylthiazol-2-yl)-5-(3-carboxymethoxyphenyl)-2-(4-sulfophenyl)-2H-tetrazolium (MTS) assay. To indicate cellular membrane permeability, the partition coefficients, which are frequently represented by calculated logP (clogP) are listed in Table 1 and Table 2.
Cellular toxicity was measured using the CellTiter 96® Aqueous One Solution Cell Proliferation Assay kit (Promega, Madison, WI, USA). The cells were stimulated with each compound and treated with the CellTiter solution. After incubation for 3 h, the absorbance of the solutions at 492 nm was measured by Multiskan FC (Thermo Fisher Scientific, Waltham, MS, USA). As a negative control, wells with culture media were used. Wells treated with DMSO (0.1%) were used as a positive control. The IC50 values were determined using these controls.

The mark [3] stands for this setting: 100 μM, SKN:HRE-MLuc cells, 3% O2, 24 h.
Where [4] appears, read: SKN:HRE-MLuc cells, 3% O2, 24 h.

Turning to `O=C(N[C@@H](Cc1ccccc1)C(=O)O)c1ccc(-c2ccccc2)s1` [Compound 23, (S)-(5-Phenylthiophene-2-carbonyl)phenylalanine], the activation at 100 µM in test [1] (setting [3]) was 0%. Besides, the concentration for half-maximal inhibition (IC50) (in general, the concentration needed to halve the response being measured) in test [2] (Homo sapiens) was above 100 µM.

`COC(=O)[C@H](Cc1ccc(O)cc1)NC(=O)c1cc2ccccc2s1` [Compound 44, (S)-Methyl (benzothiophene-2-carbonyl)tyrosinate]: in test [1] (setting [3]), the activation at 100 µM is 0%. The same molecule had an IC50 in test [2] (Homo sapiens) above 100 µM.

With `COC(=O)[C@@H](Cc1ccccc1)NC(=O)c1ccc(C)o1` [Compound 8, (R)-Methyl (5-methylfuran-2-carbonyl)phenylalaninate], the activation at 100 µM in test [1] (setting [3]) amounted to 2%. The IC50 in test [2] (Homo sapiens) was above 100 µM.

On to “(R)-Ethyl (benzothiophene-2-carbonyl)phenylalaninate [Compound 42]”, for which the “100 μM Activity (RLU intensity at 100 μM stimulation compared with the positive control DMOG)” value in test [1] (setting [3]) is reported as 0%. This molecule yielded a concentration for half-maximal inhibition (IC50) in test [2] above 100 µM.

`CCOC(=O)[C@@H](Cc1c[nH]c2ccccc12)NC(=O)c1ccc(C)s1` [Compound 18, (R)-Ethyl (5-methylthiophene-2-carbonyl)tryptophanate]: the activation at 100 µM in test [1] (setting [3]) was found to be 52%. Also, in test [1] (setting [4]), the minimal effective concentration is 100 µM. The IC50 in test [2] (Homo sapiens) was above 100 µM.

Turning to `CCOC(=O)[C@H](Cc1c[nH]c2ccccc12)NC(=O)c1ccc(C)s1` [Compound 17, (S)-Ethyl (5-methylthiophene-2-carbonyl)tryptophanate], the activation at 100 µM in test [1] (setting [3]) was determined as 49%. In test [1] (setting [4]), the minimal effective concentration came to 100 µM. In test [2] (Homo sapiens), this molecule registered a 50% inhibitory concentration (IC50) above 100 µM.

Regarding `COC(=O)[C@H](Cc1c[nH]c2ccccc12)NC(=O)c1ccc(-c2ccccc2)s1` [Compound 25, (S)-Methyl (5-phenylthiophene-2-carbonyl)tryptophanate], the activation at 100 µM in test [1] (setting [3]) worked out at 0%. Moreover, the half-inhibitory concentration (IC50) in test [2] (Homo sapiens) is above 100 µM.

As for `CCOC(=O)[C@H](Cc1ccccc1)NC(=O)c1ccc(-c2ccc(-c3ccccc3)cc2)s1` [Compound 32, (S)-Ethyl (5-((1,1′-biphenyl)-4-yl)thiophene-2-carbonyl)phenylalaninate], in test [1] (setting [3]), the activation at 100 µM came out at 0%. Further, in test [2] (Homo sapiens), the half-inhibitory concentration (IC50) was above 100 µM.

As to `COC(=O)[C@@H](Cc1ccccc1)NC(=O)c1ccc(C)s1` [Compound 14, (R)-Methyl (5-methylthiophene-2-carbonyl)phenylalaninate], the activation at 100 µM in test [1] (setting [3]) is 0%. This molecule displayed an IC50 in test [2] (Homo sapiens) above 100 µM.

`COC(=O)[C@@H](Cc1c[nH]c2ccccc12)NC(=O)c1ccco1` [Compound 4, (R)-Methyl (furan-2-carbonyl)tryptophanate]: the activation at 100 µM in test [1] (setting [3]) is 0%. The half-inhibitory concentration (IC50) in test [2] (Homo sapiens) is above 100 µM.

Turning to `COC(=O)[C@@H](Cc1c[nH]c2ccccc12)NC(=O)c1ccc(C)o1` [Compound 10, (R)-Methyl (5-methylfuran-2-carbonyl)tryptophanate], the activation at 100 µM in test [1] (setting [3]) came to 0%. Moreover, the minimal effective concentration in test [1] (setting [4]) is 6.3 µM. This molecule also returned an IC50 in test [2] (Homo sapiens) above 100 µM.

For `Cc1ccc(C(=O)NCC(=O)O)s1` [Compound 11, (5-Methylthiophene-2-carbonyl)glycine], the activation at 100 µM in test [1] (setting [3]) is 23%. For the same molecule, in test [1] (setting [4]), the minimal effective concentration stood at 25 µM. In test [2] (Homo sapiens), this molecule came in with a half-inhibitory concentration (IC50) above 100 µM.

As for `COC(=O)C(=O)N[C@H](Cc1ccccc1)C(=O)OC` [DM-NOFD, dimethyl N-oxalyl-D-phenylalanine, reference compound], the “HIF activity (HRE-MLuc reporter), result in words” value in test [1] (hypoxic conditions (3% O2), 24 h, reference compounds at 100 μM) is recorded as “significantly enhanced HIF activity”.

Turning to `Cc1ccc(C(=O)N[C@@H](C)C(=O)O)s1` [Compound 12, (S)-(5-Methylthiophene-2-carbonyl)alanine], the activation at 100 µM in test [1] (setting [3]) was 18%. The molecule also returned an IC50 in test [2] (Homo sapiens) above 100 µM.

Regarding `O=C(N[C@@H](Cc1ccccc1)C(=O)O)c1ccc(-c2ccccc2)o1` [Compound 19, (S)-(5-Phenylfuran-2-carbonyl)phenylalanine], the activation at 100 µM in test [1] (setting [3]) was found to be 0%. In addition, the half-maximal inhibitory concentration (IC50) in test [2] (Homo sapiens) is above 100 µM.

As to `CCOC(=O)[C@H](Cc1ccccc1)NC(=O)c1cc2ccccc2o1` [Compound 37, (S)-Ethyl (benzofuran-2-carbonyl)phenylalaninate], the activation at 100 µM in test [1] (setting [3]) amounted to 0%. Also, the IC50 in test [2] (Homo sapiens) is above 100 µM.
